“Also recorded” adds a separate entry of the source.
What was measured:
[1] = system: retroperitoneal white adipose tissue; experiment: Norepinephrine stimulation in vivo: gene expression in white fat; design: species or system mice; settings: NE 0.3 mg/kg s.c., 4 hours after injection, 30° C.
Protocol: Norepinephrine Stimulation In Vivo.
To measure the norepinephrine-induced gene expression changes in white fat, the mice after 6 weeks enrichment or control housing were anesthetized with pentobarbital (90 mg/kg, i.p.) and injected with 0.3 mg/kg norepinephrine (s.c.). The mice were maintained at 30° C. throughout the experiment. Fat pads were dissected 4 h after norepinephrine injection. qRT-PCR was used to profile gene expression in white fat.

white adipose tissue = experiment: Propranolol experiment: EE-induced gene program in white adipose tissue (qRT-PCR); assay type: in vivo, C57BL/6 mice; settings: propranolol in drinking water (0.5 g/L), EE or control housing for 5 weeks
Source text: We randomly assigned 40 C57BL/6 mice, 3 weeks of age, to live in enriched or control cages supplied with propranolol in drinking water (0.5 g/L). We collected blood 3 weeks after enrichment and dissected fat pads after 5 weeks enrichment.

SMILES	Lep expression in EE retroperitoneal white adipose tissue ([1]; EE mice)	Ucp1 expression in EE retroperitoneal white adipose tissue ([1]; EE mice)	gene expression changes in control retroperitoneal white adipose tissue ([1]; control-housed mice)	EE-associated molecular features of white adipose tissue (white adipose tissue)
NC[C@H](O)c1ccc(O)c(O)c1 [NE, norepinephrine]	further reduced significantly	highly increased	failed to induce significant changes	–
CC(C)NCC(O)COc1cccc2ccccc12 (stereo not shown) [Propranolol, propranolol]	–	–	–	efficiently blocked the molecular features associated with EE; also recorded: blocked enrichment-associated molecular features of white adipose tissue

— patent US20140057837A1, “METHODS AND COMPOSITIONS FOR THE "BROWNING" OF WHITE FAT” (priority 2012, published 2014)
